From patent publication US20070083037A1, “Monkey npy y4 receptor and method of evaluating compound” (priority 2003, published 2007) come the findings set out here.

Assay [1] deals with rhesus monkey NPY Y4 receptor (SEQ ID NO: 3). Put plainly: [125I]human PP binding assay using COS-7 cells expressing rhesus monkey Y4 receptor (SEQ ID NO: 3). Conditions: COS-7 cells transfected with SEQ ID NO: 3; 50 pM [125I]human PP; non-specific binding with 1 μM human PP. How it is done:
(§1) COS-7 cells (American Type Culture Collection) were seeded in a 24-well culturing plate at a density of 5×10^4 cells/well, and after 24 hours, they were transfected with a pEF1/V5-HisB plasmid vector containing the nucleotide sequence of SEQ ID NO: 1 or 3 obtained in Example 1 or the same vector without the insert (mock), using Efectene (Qiagen). After culturing for 48 hours, incubation was performed at 37° C. for 30 minutes in 240 μl/well of reaction buffer (Hanks' balanced salt solution containing 20 mM HEPES and 0.2% bovine serum albumin; pH 7.4) to which 50 pM [^125I]human PP (Perkin-Elmer) had been added. After rinsing with ice-cooled reaction buffer, the cells were lysed and recovered with 2M NaOH and the radioactivity was measured with a γ-counter (Packard, Cobra).
(§2) Non-specific binding was also measured by adding 1 μM human PP to the reaction solution.

Assay [2] concerns rhesus monkey NPY Y4 receptor (SEQ ID NO: 1). Put plainly: [125I]human PP binding assay using COS-7 cells expressing rhesus monkey Y4 receptor (SEQ ID NO: 1). The following applies: COS-7 cells transfected with SEQ ID NO: 1; 50 pM [125I]human PP; non-specific binding with 1 μM human PP. As for the experimental part: as §1, §2
Assay [3] has the same test system. Nature of the assay: Receptor binding assay using rhesus monkey Y4 receptor-expressing COS-7 cell membrane fractions (SEQ ID NO: 1), inhibition of [125I]human PP binding. The following applies: expression vector SEQ ID NO: 1; COS-7 membrane fraction; 59 pM [125I]human PP; read-out: IC50 against specific [125I]human PP binding. How it is done: (§3) COS-7 cells were transfected with a pEF1/[…]B plasmid vector containing the nucleotide sequence of SEQ ID NO: 1 or 3, using LipofectAmine Plus (Invitrogen). After 48 hours, the cells were recovered, and disrupted in 10 mM MOPS buffer (pH 7.4) containing 20% sucrose, 154 mM NaCl, 10 mM KCl and 0.8 mM CaCl2, using a Polytron homogenizer (Kinematica) while cooling on ice. The obtained homogenate was centrifuged at 1,000×g, 4° C. for 15 minutes, the supernatant was centrifuged at 90,000×g for 50 minutes, and the precipitate was collected. It was then suspended in 5 mM HEPES/Tris buffer (pH 7.4) and then centrifuged again at 90,000×g for 50 minutes, after which the obtained precipitate was collected as the membrane sample. […] After rinsing with 5 mM Tris buffer (pH 7.4) containing 0.3% bovine serum albumin and drying, MicroScint0 (Perkin-Elmer) was added, and a TopCount HTS (Packard) was used to measure the residual radioactivity on the filter.

Assay [4] relates to rhesus monkey NPY Y4 receptor (SEQ ID NO: 3). Put plainly: Receptor binding assay using rhesus monkey Y4 receptor-expressing COS-7 cell membrane fractions (SEQ ID NO: 3), inhibition of [125I]human PP binding. Conditions: expression vector SEQ ID NO: 3; COS-7 membrane fraction; 59 pM [125I]human PP; read-out: IC50 against specific [125I]human PP binding. As for the experimental part: as §3
Chain of rhesus monkey NPY Y4 receptor (SEQ ID NO: 3) (as listed by the source): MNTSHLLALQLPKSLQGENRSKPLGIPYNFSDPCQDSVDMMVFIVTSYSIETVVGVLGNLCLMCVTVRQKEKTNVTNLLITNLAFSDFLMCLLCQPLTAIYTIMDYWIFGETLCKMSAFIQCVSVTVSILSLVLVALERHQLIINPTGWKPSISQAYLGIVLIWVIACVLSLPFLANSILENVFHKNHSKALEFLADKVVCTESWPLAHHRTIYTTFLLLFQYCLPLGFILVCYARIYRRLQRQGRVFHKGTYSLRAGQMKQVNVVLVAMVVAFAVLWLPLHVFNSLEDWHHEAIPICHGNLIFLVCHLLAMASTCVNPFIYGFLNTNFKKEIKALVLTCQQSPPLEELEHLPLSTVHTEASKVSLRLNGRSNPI

Chain of rhesus monkey NPY Y4 receptor (SEQ ID NO: 1) (as listed by the source): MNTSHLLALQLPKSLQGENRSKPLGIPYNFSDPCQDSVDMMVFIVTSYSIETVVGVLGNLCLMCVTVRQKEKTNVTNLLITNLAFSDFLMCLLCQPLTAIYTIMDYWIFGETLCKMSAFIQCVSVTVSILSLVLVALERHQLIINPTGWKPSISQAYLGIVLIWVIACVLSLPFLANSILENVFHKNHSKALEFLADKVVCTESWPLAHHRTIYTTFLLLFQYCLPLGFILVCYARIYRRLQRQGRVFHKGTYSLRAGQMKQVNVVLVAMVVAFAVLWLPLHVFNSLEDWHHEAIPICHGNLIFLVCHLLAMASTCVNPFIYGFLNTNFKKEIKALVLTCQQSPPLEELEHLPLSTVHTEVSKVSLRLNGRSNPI

On to “[125I]human PP: 125I-labelled human PP radioligand (Perkin-Elmer)”, for which the figures for the Specific binding in assay [1] and in assay [2] were 1394 cpm and 1238 cpm, respectively.

Turning to Neuropeptide-Y [Human NPY], the IC50 amounted to 100 nM in assay [3] and 97 nM in assay [4].
